Experimental data as given in BindingDB's records for doi:10.1016/S0960-894X(00)80683-6 (1993).

Legend:
[1] = molecular target: Gastrin/cholecystokinin type B receptor (Cavia porcellus); test: Ability to inhibit the binding of [125I]CCK-8 to Cholecystokinin type B receptor in guinea pig cortex.
[2] = molecular target: Gastrin/cholecystokinin type B receptor (Cavia porcellus); test: Ability to inhibit the binding of [125I]-gastrin to gastric glands in guinea pig.
[3] = molecular target: Gastrin/cholecystokinin type B receptor (Cavia porcellus); test: Ability to inhibit the binding of [125I]CCK-8 to Cholecystokinin type B receptor in guinea pig cortex.; remark: listed apart in the source

SMILES	IC50 [1]	IC50 [2]	IC50 [3]
CN1CCN(C(=O)CN2C(=O)C(NC(=O)Nc3ccc(Cl)cc3)N=C(c3ccccc3)c3ccccc32)CC1 (configuration not stated) [1-(4-Chloro-phenyl)-3-{1-[2-(4-methyl-piperazin-1-yl)-2-oxo-ethyl]-2-oxo-5-phenyl-2,3-dihydro-1H-benzo[e][1,4]diazepin-3-yl}-urea]	8 nM	2.6 nM	
O=C(Nc1cccc2ccccc12)NC1CCc2ccccc2N(CC(=O)N2CCCC2)C1=O (configuration not stated) [1-Naphthalen-1-yl-3-[2-oxo-1-(2-oxo-2-pyrrolidin-1-yl-ethyl)-2,3,4,5-tetrahydro-1H-benzo[b]azepin-3-yl]-urea]	650 nM	460 nM	

The remaining lines, values ahead:

IC50 [1]	IC50 [2]	IC50 [3]	SMILES
	610 nM	5000 nM	Cc1cccc(NC(=O)NC2CCc3ccccc3N(CC(=O)N3CCN(C)CC3)C2=O)c1 (configuration not stated) [1-{1-[2-(4-Methyl-piperazin-1-yl)-2-oxo-ethyl]-2-oxo-2,3,4,5-tetrahydro-1H-benzo[b]azepin-3-yl}-3-m-tolyl-urea]
	480 nM	150 nM	CC(C)(C)OC(=O)CN1C(=O)C(NC(=O)Nc2cccc3ccccc23)CCc2ccccc21 (configuration not stated) [[3-(3-Naphthalen-1-yl-ureido)-2-oxo-2,3,4,5-tetrahydro-benzo[b]azepin-1-yl]-acetic acid tert-butyl ester]
8600 nM	3100 nM		COc1cccc(NC(=O)NC2CCc3ccccc3N(CC(=O)O)C2=O)c1 (configuration not stated) [{3-[3-(3-Methoxy-phenyl)-ureido]-2-oxo-2,3,4,5-tetrahydro-benzo[b]azepin-1-yl}-acetic acid]
180 nM	120 nM		CC(C)(C)OC(=O)CN1C(=O)C(NC(=O)Nc2ccc(Cl)cc2)CCc2ccccc21 (configuration not stated) [{3-[3-(4-Chloro-phenyl)-ureido]-2-oxo-2,3,4,5-tetrahydro-benzo[b]azepin-1-yl}-acetic acid tert-butyl ester]
